This note sets out measurements from publication PMC9959048, “Lipidation of Naturally Occurring α-Helical Antimicrobial Peptides as a Promising Strategy for Drug Design” (International Journal of Molecular Sciences, 2023).

One series deals with POPC liposomes. In words: CD, α-helix content in POPC liposomes. It counts as physicochemical. The settings on record: 25 °C, peptide 0.15 mg/mL, 1.3 mM POPC. The protocol: (§1) Large unilamellar vesicles (LUV) were obtained by extrusion of MLV liposomes through polycarbonate membrane filters with a pore diameter of 100 nm (Whatman International Ltd., Kent, UK) using a mini-extruder (Avanti Polar Lipids, Inc., Alabaster, AL, USA).
(§2) CD experiments were carried out at 25 °C using a Jasco J-815 spectropolarimeter in the wavelength range 185–260 nm. The concentration of the lipopeptides was 0.15 mg/mL. The CD spectra were recorded in water, PBS (pH 7.4), 1.3 mM POPC and 1.3 mM POPG. The results are plotted as the mean molar ellipticity per one amino acid residue (MRME, deg cm^2 dmol^−1) as a function of the wavelength (nm). Additionally, we performed a conformational analysis of the selected compounds in the presence of S. aureus cells. […] The mixtures were then incubated for 2 h before recording the CD spectra.
(§3) The percentage of the α-helical structure was calculated based on the mean molar ellipticity at 222 nm using the formula: fH=θ222−3000/−36000−3000·100% where θ222 corresponds to the value of the mean molar ellipticity at a wavelength of 222 nm.

A further series deals with POPG LUVs. In words: Isothermal titration calorimetry, binding to POPG LUVs. Particulars: ITC, 25 °C. The method, then:
as §1
The thermodynamic parameters of the interactions of the lipopeptides with POPG and POPC liposomes were determined by isothermal titration calorimetry (ITC). Measurements were performed at 25 °C using an AutoITC microcalorimeter (MicroCal Inc., Northampton, MA, USA) with a 1.4491 mL sample and reference cells. The experiment consisted in the titration of a buffered peptide solution with a concentration of 0.05 and/or 0.07 mM with a buffered solution containing POPG or POPC LUVs with a lipid concentration of 1.3 and 1.8 mM (10.02 µL; 29 injections, 2 µL for the first injection only), as it was described previously. The result of the titration was a thermogram showing a series of peaks corresponding to the titration steps. A titration curve was obtained after integration of the peak areas. The obtained isotherms were fitted to the “one set of sites” or “two sets of sites” models available in the ORIGIN 7.0 (MicroCal Inc., Northampton, MA, USA), which made it possible to determine the enthalpy (ΔH), the binding constant (KITC) and the stoichiometry (N) of the interactions between the lipopeptide and the lipids. The following formula was used to calculate the entropy change (ΔS) and the Gibbs free energy (ΔG): ΔG=−RTln(55.5KITC)=ΔH−TΔS where: factor 55.5 is the molar concentration of water, R is the gas constant (1.986 cal·mol^−1·K^−1), and T is the absolute temperature.

The next series has as its system S. aureus PCM1650. It is filed as cell-based, Staphylococcus aureus. The settings on record: Mueller–Hinton broth, inoculum 5 × 10^5 CFU/mL, 24 h, 37 °C, absorbance 600 nm, triplicate. The gist of the method:
(§4)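 Absorbance at 600 nm after 24 h incubation defines growth, with inhibition expressed as % of peptide-free inoculated wells and medium-only wells as 0%. Serial micro-dilution followed CLSI methods for aerobic bacteria (MHB, 37 °C) and yeasts (RPMI-1640–MOPS, 2% glucose, 35 °C).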

The next series relates to S. aureus PCM2054. It counts as cell-based, Staphylococcus aureus. The settings on record: Mueller–Hinton broth, inoculum 5 × 10^5 CFU/mL, 24 h, 37 °C, absorbance 600 nm, triplicate. The gist of the method: as §4
The target of the next series is POPC LUVs. In words: Isothermal titration calorimetry, binding to POPC LUVs. The settings on record: ITC, 25 °C, 1.3 mM POPC to 0.05 mM C10-LL-I. The protocol: as §1
The thermodynamic parameters of the interactions of the lipopeptides with POPG and POPC liposomes were determined by isothermal titration calorimetry (ITC). Measurements were performed at 25 °C using an AutoITC microcalorimeter (MicroCal Inc., Northampton, MA, USA) with a 1.4491 mL sample and reference cells. The experiment consisted in the titration of a buffered peptide solution with a concentration of 0.05 and/or 0.07 mM with a buffered solution containing POPG or POPC LUVs with a lipid concentration of 1.3 and 1.8 mM (10.02 µL; 29 injections, 2 µL for the first injection only), as it was described previously. The result of the titration was a thermogram showing a series of peaks corresponding to the titration steps. A titration curve was obtained after integration of the peak areas. The obtained isotherms were fitted to the “one set of sites” or “two sets of sites” models available in the ORIGIN 7.0 (MicroCal Inc., Northampton, MA, USA), which made it possible to determine the enthalpy (ΔH), the binding constant (KITC) and the stoichiometry (N) of the interactions between the lipopeptide and the lipids. […]
On the technique in general: Isothermal titration calorimetry measures the heat released or taken up as one component is titrated into another.

The next series relates to C. albicans PCM2566. It counts as cell-based, Candida albicans. Particulars: RPMI-1640 with MOPS and 2% glucose, inoculum 5 × 10^3 CFU/mL, 24 h, 35 °C, absorbance 600 nm, triplicate. The gist of the method:
as §4

Another series deals with C. parapsilosis CCM 8260. It is filed as cell-based, Candida parapsilosis. The settings on record: RPMI-1640 with MOPS and 2% glucose, inoculum 5 × 10^3 CFU/mL, 24 h, 35 °C, absorbance 600 nm, triplicate. The gist of the method:
as §4

A further series has as its system S. epidermidis PCM521. It is filed as cell-based, Staphylococcus epidermidis. The settings on record: Mueller–Hinton broth, inoculum 5 × 10^5 CFU/mL, 24 h, 37 °C, absorbance 600 nm, triplicate. The gist of the method: as §4
For another series, the system named is S. epidermidis PCM2118. It is filed as cell-based, Staphylococcus epidermidis. The settings on record: Mueller–Hinton broth, inoculum 5 × 10^5 CFU/mL, 24 h, 37 °C, absorbance 600 nm, triplicate. The gist of the method:
as §4

In a further series the test system is E. coli PCM2057. It counts as cell-based, Escherichia coli. The settings on record: Mueller–Hinton broth, inoculum 5 × 10^5 CFU/mL, 24 h, 37 °C, absorbance 600 nm, triplicate. The gist of the method:
as §4

A further series relates to C. krusei CCM8271. It counts as cell-based, Candida krusei. Particulars: RPMI-1640 with MOPS and 2% glucose, inoculum 5 × 10^3 CFU/mL, 24 h, 35 °C, absorbance 600 nm, triplicate. The gist of the method:
as §4

Series [1] relates to human breast cancer cells (MCF-7 line, ATCC). In words: MTT cytotoxicity assay. It counts as cell-based. Particulars: IC50 against HaCaT divided by IC50 for MCF-7. The protocol:
(§5) The prepared plates were further incubated for 48 h. […] The control cell viability was assumed to be 100%. Three independent experiments were carried out in three repetitions.
A general note: Formazan colour is commonly taken as a measure of viable cells.

Series [2] relates to human prostate cancer cells (PC3 line, ATCC). In words: MTT cytotoxicity assay. It is filed as cell-based. Particulars: IC50 against HaCaT divided by IC50 for PC3. The protocol: as §5
A further series has as its system C. glabrata CCM8270. It is filed as cell-based, Candida glabrata. Particulars: RPMI-1640 with MOPS and 2% glucose, inoculum 5 × 10^3 CFU/mL, 24 h, 35 °C, absorbance 600 nm, triplicate. The gist of the method:
as §4

The test system of a further series is POPG liposomes. In words: CD, α-helix content in POPG liposomes. It is filed as physicochemical. Particulars: 25 °C, peptide 0.15 mg/mL, 1.3 mM POPG. The method, then: as §1, §2, §3

Converted amounts (≈) assume the structure as drawn. Residues, ends and D or L forms follow the SMILES beside them. *: point of attachment. Decanoyl = CCCCCCCCCC(=O)*

As to `CCCCCCCCCC(=O)N[C@H](C(=O)N[C@@H](CC(N)=O)C(=O)N[C@@H](Cc1c[nH]c2ccccc12)C(=O)N[C@@H](CCCCN)C(=O)N[C@@H](CCCCN)C(=O)N[C@H](C(=O)N[C@@H](CC(C)C)C(=O)NCC(=O)N[C@@H](CCCCN)C(=O)N[C@H](C(=O)N[C@H](C(=O)N[C@@H](CCCCN)C(=O)N[C@H](C(=O)N[C@@H](C)C(=O)N[C@@H](CCCCN)C(N)=O)C(C)C)[C@@H](C)CC)[C@@H](C)CC)C(C)C)C(C)C` [C10-LL-I] (Decanoyl-VNWKKVLGKIIKVAK-NH2), the “θ222/θ208, POPC” value in the series on POPC liposomes is 0.88. In the series with POPC liposomes (from ellipticity at 222 nm), the “α-Helix percentage, POPC” value came to 40%. Also, the “pKITC, POPG” value stood at 6.02 ± 1.09 at POPG LUVs (0.05 or 0.07 mM peptide titrated with 1.3 or 1.8 mM POPG LUVs, one set of sites model (C10-LL-I: two sets of sites, first line)) and 4.69 ± 0.54 at POPG LUVs (two sets of sites model, second line). Moreover, the “MIC, S. aureus PCM1650” value with S. aureus PCM1650 was found to be 12.5 mg/L (≈ 6.66 µM). Further, the “MIC, S. aureus PCM2054” value against S. aureus PCM2054 amounted to 12.5 mg/L (≈ 6.66 µM). For the same compound, the “pKITC, POPC” value on POPC LUVs is 4.42 ± 0.24. Also, in the series on C. albicans PCM2566, the “MIC, C. albicans PCM2566” value is over 50 mg/L. Also, in the series on C. parapsilosis CCM 8260, the “MIC, C. parapsilosis CCM 8260” value turned out to be 6.25 mg/L (≈ 3.33 µM). The “MIC, S. epidermidis PCM521” value in the series with S. epidermidis PCM521 is 12.5 mg/L (≈ 6.66 µM). Also, in the series with S. epidermidis PCM2118, the “MIC, S. epidermidis PCM2118” value worked out at 6.25 mg/L (≈ 3.33 µM). Further, in the series with E. coli PCM2057, the “MIC, E. coli PCM2057” value turned out to be 25 mg/L (≈ 13.3 µM). For the same compound, the “MIC, C. krusei CCM8271” value in the series with C. krusei CCM8271 was found to be 12.5 mg/L (≈ 6.66 µM). Besides, the “SI MCF-7” value in [1] came out at 1.34. In series [2], the “SI PC3” value is 0.84. Further, the “MIC, C. glabrata CCM8270” value against C. glabrata CCM8270 was determined as 25 mg/L (≈ 13.3 µM). For the same compound, the “θ222/θ208, POPG” value in the series on POPG liposomes stood at 0.98. In the series with POPG liposomes (from ellipticity at 222 nm), the “α-Helix percentage, POPG” value was 19%.
